Test results reported in paper PMC6278353 (Molecules, 2018).

Tests used:
[1] = Stability of vancomycin in serum under various storage conditions (QC samples, HPLC-Q-trap-MS); assay type: in vitro ADME, human; details: serum at 4 °C and 25 °C for 24 h, after three freezing and thawing cycles and stored at −80 °C for 30 days; three concentrations
Experimental: The IS working solution was diluted with deionized water to give a final concentration of 100 ng/mL. Quality control (QC) samples were prepared in 100 μL of blank serum by adding 10 μL of serially diluted solutions of the substance to determine the limit of quantification, as well as 2 ng/mL (low), 20 ng/mL (medium), and 400 ng/mL (high) concentrations. The L, M, and H of QCs were analyzed at least in duplicate. All solutions were stored at −20 °C and brought to room temperature before use.
The chromatographic separation was performed on an Agilent ZORBAX SB-C18 (4.6 × 150 mm, 5 μm). The mobile phase consisted of water (containing 0.1% formic acid, v/v) and acetonitrile (containing 0.1% formic acid, v/v) and the flow rate was set at 0.5 mL/min. An isocratic elution was performed with 30% of acetonitrile. The total run time was 8 min. The injection volume was 10 μL. […]
The pretreatment followed for all samples was 10 μL of the IS was added to 20 μL of the standard and unknown serum samples and mixed vigorously for 20 s. […] Two-hundred microliters of mobile phase was added to the resulting residue and vortexed for 1 min; 100 μL was analyzed.
For the bench-top stability during handing, QC samples were prepared and kept room temperature (25 °C) for 6 h. […] Stability of sample in autosampler was determined by analyzing the targets after kept in an autosampler at room temperature for 12 h.

[2] = Steady-state trough serum vancomycin concentration in DFI patients and nondiabetic patients with pneumonia; assay type: in vivo, human; details: 1g q12h; for Trough Concentration of vancomycin: mean ± SD, SD
Experimental: Clinical samples were collected at Air Force General Hospital, PLA. […] Human blank serum was obtained from healthy blood donors not using vancomycin (Air Force General Hospital, PLA.). The study was approved by the hospital ethics committee. Every patient was given a sufficient description of the study and signed an informed consent prior to the study.
The pretreatment followed for all samples was 10 μL of the IS was added to 20 μL of the standard and unknown serum samples and mixed vigorously for 20 s. Five-hundred microliters of acetonitrile was added, vortexed for 1 min, and centrifuged for 6 min at 12,000 rpm. After transferring the supernatant to a fresh centrifuge tube, it was evaporated to dryness under a stream of nitrogen at room temperature. Two-hundred microliters of mobile phase was added to the resulting residue and vortexed for 1 min; 100 μL was analyzed.
Fifty diabetes mellitus type 2 patients with known or suspected Gram-positive DFI (Wagner score grade 3/4, equivalent to Texas classification of at least B3), and 50 nondiabetic patients with pneumonia requiring antibiotic therapy from 2014 to 2016 were included. […] The estimated ClCr was calculated from serum creatinine using the Cockcroft-Gault formula [29]. CrCl = (140-age in years) × body weight in kg/(serum creatinine in […]) × 0.85 for females). Statistical analysis was performed by SPSS 25.0.

CN[C@H](CC(C)C)C(=O)N[C@H]1C(=O)N[C@@H](CC(N)=O)C(=O)N[C@H]2C(=O)N[C@H]3C(=O)N[C@H](C(=O)N[C@H](C(=O)O)c4cc(O)cc(O)c4-c4cc3ccc4O)[C@H](O)c3ccc(c(Cl)c3)Oc3cc2cc(c3O[C@@H]2O[C@H](CO)[C@@H](O)[C@H](O)[C@H]2O[C@H]2C[C@](C)(N)[C@H](O)[C@H](C)O2)Oc2ccc(cc2Cl)[C@H]1O [vancomycin, Vancomycin]
Stability in serum (in words) [1]: stable | Trough Concentration of vancomycin ([2]; DFI group (n = 50), type 2 diabetes patients): 8.20 ± 2.83 µg/mL | Trough concentration of vancomycin, range ([2]; DFI patients (n = 50)): 4.80 to 14.2 µg/mL | Trough Concentration of vancomycin ([2]; Nondiabetic group (n = 50), pneumonia patients): 15.8 ± 5.43 µg/mL | Trough concentration of vancomycin, range ([2]; nondiabetic patients (n = 50)): 8.60 to 19.5 µg/mL
